# Results taken from paper PMC4468608, “A distinct p53 target gene set predicts for response to the selective p53–HDM2 inhibitor NVP-CGM097” (eLife, 2015).
# Read-outs that look alike come from different tables or passages of the source.
# System: cell lines from the Cancer Cell Line Encyclopedia (CCLE)
# Test: High-throughput cell viability assay, CCLE cell line panel (n = 356)
# Type: cell-based, human
# Conditions: Homo sapiens
# Protocol: Cell lines were partitioned into sensitive and insensitive groups based on compound potency (IC50). […] All other cell lines were obtained from ATCC (American Type Culture Collection), DSMZ (Deutsche Sammlung von Mikroorganismen und Zellkulturen), and HSRRB (Health Science Research Resources Bank) and cultured in RPMI or Dulbecco's modified Eagle's medium plus 10% FBS (Invitrogen, Carlsbad, CA) at 37°C, 5% CO2.
smiles,measurement,setting,value
COc1cc2c(cc1OC(C)C)[C@H](c1ccc(Cl)cc1)N(c1ccc(N(C)C[C@H]3CC[C@H](N4CCNC(=O)C4)CC3)cc1)C(=O)C2 [NVP-CFC218],IC50,"LOX IMVI, TP53 WT",> 8 µM
same,IC50,"LP-1, TP53 MUT",7.24 µM
same,IC50,"LS-1034, LS1034, TP53 MUT",> 8 µM
same,IC50,"LUDLU-1, LUDLU-1, TP53 MUT",> 8 µM
same,IC50,"Loucy, TP53 MUT",7.62 µM
same,IC50,"Lu-65, LU65, TP53 MUT",> 8 µM
same,IC50,"Lu-99, LU99, TP53 WT",2.71 µM
same,IC50,"MC116, MC116, TP53 MUT",5.21 µM
same,IC50,"MDA-MB-415, MDA-MB-415, TP53 MUT",7.62 µM
same,IC50,"MDA-MB-453, MDA-MB-453, TP53 WT",> 8 µM
same,IC50,"MDA-MB-468, MDA-MB-468, TP53 MUT",> 8 µM
same,IC50,"MEG-01, MEG-01, TP53 MUT",> 8 µM
same,IC50,"MFE-280, MFE-280, TP53 MUT",6.92 µM
same,IC50,"MFE-296, MFE-296, TP53 MUT",> 8 µM
same,IC50,"MFE-319, TP53 MUT",> 8 µM
same,IC50,"MG-63, MG-63, TP53 WT",> 8 µM
same,IC50,"MHH-ES-1, read-out: NVP- CFC218 IC50 (µM), cell line MHH-ES-1, bone, TP53 MUT",> 8 µM
same,IC50,"MIA PaCa-2, MIA PaCa-2, TP53 MUT",> 8 µM
same,IC50,"MKN-74, MKN74, TP53 MUT",> 8 µM
same,IC50,"MOG-G-CCM, TP53 MUT",> 8 µM
same,IC50,"MOG-G-UVW, TP53 WT",> 8 µM
same,IC50,"MOLM16, MOLM-16, TP53 MUT",> 8 µM
same,IC50,"MOLM-13, MOLM-13, TP53 WT",0.69 µM
same,IC50,"MOR/CPR, TP53 MUT",> 8 µM
same,IC50,"MPP 89, TP53 WT",> 8 µM
same,IC50,"Malme-3M, read-out: NVP- CFC218 IC50 (µM), cell line Malme-3M, skin, TP53 WT",> 8 µM
same,IC50,"MeWo, TP53 MUT",> 8 µM
same,IC50,"Mono-Mac-1, MONO-MAC-1, TP53 MUT",> 8 µM
same,IC50,"NALM-6, NALM-6, TP53 WT",1.16 µM
same,IC50,"NB-4, TP53 MUT",> 8 µM
same,IC50,"NCI-H23, NCI-H23, TP53 MUT",> 8 µM
same,IC50,"NCI-H211, NCI-H211, TP53 MUT",> 8 µM
same,IC50,"NCI-H358, NCI-H358, TP53 WT",> 8 µM
same,IC50,"NCI-H441, NCI-H441, TP53 MUT",> 8 µM
same,IC50,"NCI-H460, read-out: NVP- CFC218 IC50 (µM), cell line NCI-H460, lung, TP53 WT",> 8 µM
same,IC50,"NCI-H520, NCI-H520, TP53 MUT",> 8 µM
same,IC50,"NCI-H647, read-out: NVP- CFC218 IC50 (µM), cell line NCI-H647, lung, TP53 MUT",> 8 µM
same,IC50,"NCI-H650, NCI-H650, TP53 MUT",> 8 µM
same,IC50,"NCI-H747, NCI-H747, TP53 MUT",> 8 µM
same,IC50,"NCI-H810, NCI-H810, TP53 MUT",> 8 µM
same,IC50,"NCI-H889, NCI-H889, TP53 MUT",> 8 µM
same,IC50,"NCI-H1299, read-out: NVP- CFC218 IC50 (µM), cell line NCI-H1299, lung, TP53 WT",> 8 µM
same,IC50,"NCI-H1355, NCI-H1355, TP53 MUT",> 8 µM
same,IC50,"NCI-H1373, NCI-H1373, TP53 MUT",> 8 µM
same,IC50,"NCI-H1435, NCI-H1435, TP53 MUT",> 8 µM
same,IC50,"NCI-H1573, NCI-H1573, TP53 MUT",> 8 µM
same,IC50,"NCI-H1581, NCI-H1581, TP53 MUT",> 8 µM
same,IC50,"NCI-H1648, NCI-H1648, TP53 MUT",> 8 µM
same,IC50,"NCI-H1650, read-out: NVP- CFC218 IC50 (µM), cell line NCI-H1650, lung, TP53 MUT",> 8 µM
same,IC50,"NCI-H1651, NCI-H1651, TP53 MUT",> 8 µM
same,IC50,"NCI-H1666, NCI-H1666, TP53 WT",0.88 µM
same,IC50,"NCI-H1693, read-out: NVP- CFC218 IC50 (µM), cell line NCI-H1693, lung, TP53 MUT",> 8 µM
same,IC50,"NCI-H1703, read-out: NVP- CFC218 IC50 (µM), cell line NCI-H1703, lung, TP53 MUT",> 8 µM
same,IC50,"NCI-H1734, NCI-H1734, TP53 MUT",> 8 µM
same,IC50,"NCI-H1792, NCI-H1792, TP53 MUT",> 8 µM
same,IC50,"NCI-H1915, NCI-H1915, TP53 MUT",> 8 µM
same,IC50,"NCI-H1944, NCI-H1944, TP53 WT",6.39 µM
same,IC50,"NCI-H1975, NCI-H1975, TP53 MUT",> 8 µM
same,IC50,"NCI-H2009, NCI-H2009, TP53 MUT",> 8 µM
same,IC50,"NCI-H2052, NCI-H2052, TP53 WT",3.36 µM
same,IC50,"NCI-H2087, NCI-H2087, TP53 MUT",> 8 µM
same,IC50,"NCI-H2110, NCI-H2110, TP53 MUT",> 8 µM
same,IC50,"NCI-H2122, NCI-H2122, TP53 MUT",1.9 µM
same,IC50,"NCI-H2172, NCI-H2172, TP53 WT",> 8 µM
same,IC50,"NCI-H2196, NCI-H2196, TP53 MUT",> 8 µM
same,IC50,"NCI-H2347, NCI-H2347, TP53 WT",> 8 µM
same,IC50,"NCI-H2444, NCI-H2444, TP53 MUT",> 8 µM
same,IC50,"NCI-H2452, NCI-H2452, TP53 WT",> 8 µM
same,IC50,"NCO2, TP53 MUT",> 8 µM
same,IC50,"OAW-42, read-out: NVP- CFC218 IC50 (µM), cell line OAW42, ovary, TP53 WT",> 8 µM
same,IC50,"OC 316, TP53 MUT",> 8 µM
same,IC50,"OCI-AML2, OCI-AML2, TP53 WT",2.38 µM
same,IC50,"OCI-Ly10, OCI-LY10, TP53 MUT",> 8 µM
same,IC50,"OCI-M1, OCI-M1, TP53 MUT",> 8 µM
same,IC50,"OE19, read-out: NVP- CFC218 IC50 (µM), cell line OE19, oesophagus, TP53 MUT",> 8 µM
same,IC50,"OE33, OE33, TP53 MUT",> 8 µM
same,IC50,"ONS-76, ONS-76, TP53 WT",> 8 µM
same,IC50,"OPM-2, OPM-2, TP53 MUT",> 8 µM
same,IC50,"OV-90, OV-90, TP53 MUT",> 8 µM
same,IC50,"OVCAR-3, NIH:OVCAR-3, TP53 MUT",> 8 µM
same,IC50,"OVCAR-4, OVCAR-4, TP53 MUT",> 8 µM
same,IC50,"OVCAR-8, read-out: NVP- CFC218 IC50 (µM), cell line OVCAR-8, ovary, TP53 MUT",> 8 µM
same,IC50,"OVSAHO, TP53 MUT",> 8 µM
same,IC50,"P3HR-1, P3HR-1, TP53 MUT",> 8 µM
same,IC50,"P12-Ichikawa, TP53 MUT",2.5 µM
same,IC50,"P31-FUJ, P31/FUJ, TP53 MUT",> 8 µM
